Consider ten molecules from patent US8937152B2, “Non-selective somatostatin analogues” (Italfarmaco SpA, priority 2007, dated 2015).

pIC50: −log10 of the molar value. Read-outs that look alike come from different tables or passages of the source. *1 amine or outer side, *2 acyl side, *3 side chain or, on linkers, in order; H or OH if unused. Where a SMILES comes first, the peptide text is derived from it. Side-chain parts run from the residue outwards. [ ]: non-standard residue; d: D form. The star is where a group is joined. Ethylenediamine = C(CN[*:2])N[*:1]; Hyp = O=C(O)[C@@H]1C[C@@H](O)CN1; Phg = N[C@H](C(=O)O)c1ccccc1; CO = O=C([*:1])[*:2]; Bn = c1ccc(C*)cc1

The target in data set [1] is T1, hSSTR2 (Homo sapiens, UniProt P30874).
T1 construct: expressed in transfected cells
The experiment in a line: Binding assay, displacement of 3-[125I]iodotyrosyl11 Somatostatin-14. The following applies: cell membranes, 60 min at 25° C. Here is the method: (§1) The binding assays were carried out, as is explained below, by using preparations of recombinant human receptors, hSSTR1, hSSTR2, hSSTR3 and hSSTR5, obtained from cell membranes (for example CHO) transfected according to standard methods.
(§2) The membranes are incubated in duplicate for 60 min. at 25° C. with 3-[125I]iodotyrosyl11Somatostatin-14 (Amersham, IM161, 2000 Ci/mmol) as radioligand and with increasing concentrations of the compound under examination, in 25 mM Hepes (pH 7.4) buffer, containing 5 mM MgCl2, 1 mM CaCl2, 10 μg/ml of Saponin, 0.5% BSA. The incubation is terminated by means of filtration with a Filtermate Harvester (Perkin Elmer) through GF/B filters, which are then washed 6 times with buffer (25 mM Hepes pH 7.4, 5 mM MgCl2, 1 mM CaCl2). The radioactivity of the filters is measured in a TopCount™ or MicroBeta™ reader for 1 min/well after having added the Microscint 20 liquid scintillation (Packard) and incubated for 15 min. in an orbital stirrer. The results are expressed as specific binding percentage of the radio-marked ligand, in the presence of increasing concentrations of the compound under examination. The IC50 values were calculated by using the “GraphPad Prism” software (IC50=concentration of compound necessary for obtaining half of the maximum inhibition, in the competitive binding test described above).

Data set [2] deals with T2, hSSTR5 (Homo sapiens, UniProt P35346).
T2 construct: expressed in transfected cells
The description is as above. Particulars: cell membranes, 60 min at 25° C. Here is the method:
as §1, §2

The target in data set [3] is T3, hSSTR3 (Homo sapiens, UniProt P32745).
T3 construct: expressed in transfected cells
Described as above. The following applies: cell membranes, 60 min at 25° C. Here is the method:
as §1, §2

The target of data set [4] is T4, hSSTR1 (Homo sapiens, UniProt P30872).
T4 construct: expressed in transfected cells
The description is as above. Particulars: recombinant human receptor, cell membranes; 60 min at 25° C. The procedure: as §1, §2

For data set [5] the following is noted: comparison value, source and conditions not stated; cited from earlier work.
A short description of data set [6]: Pharmacokinetic profile in rats, subcutaneous. The data set is classed as in vivo. Particulars: rat, sc, male rats, 1 mg/kg, plasma; for half-life: read-out: t½ (converted). Here is the method: Assay for the Pharmacokinetic Profile
The compounds of the invention also show, in rats, a very favourable pharmacokinetic profile. The pharmacokinetic profile was measured by administering the compounds to male rates, subcutaneously, at the dose of 1 mg/kg (CD, Sprague Dawley; 200-250 g). Blood samples were collected, at different times, up to 72 hours after the administration. The concentrations of the compound under examination were measured in the separated plasma samples, by means of an LC-MS/MS analysis method and the values were processed according to a non-compartmental model using the software “Kinetica”. In the following table, the main pharmacokinetic parameters obtained with the compound of example 1 are reported, compared with those obtained with PASIREOTIDE, another stable analogue of somatostatin, currently in clinical development phase (PASIREOTIDE was prepared by following the process described in WO2002010192).

The test system of data set [7] is rat pituitary cells. Particulars: 3 h.
For data set [8], the system named is release of GH stimulated by Nembutal. Put plainly: In vivo inhibition of the GH production stimulated by barbiturates (Nembutal). More on the design: species or system rat. Particulars: male rats, subcutaneous. The procedure:
Assay for the In Vivo Inhibition of the GH Production, Stimulated by Barbiturates
The compounds are administrated subcutaneously, at different doses, in male rats (CD, Harlan Italy). Blood samples are collected, at different times, one hour after the animals were anesthetised by means of intraperitoneal administration of Nembutal (60 mg/kg); the hormone levels are measured by means of the ELISA test. In the animals treated with the compounds of the invention, at doses from 5 to 250 μg/kg, there is a decrease of the produced GH levels.

Setting [9] is: recombinant human receptor, read-out: IC50 (nM) hSSTR2.
[10] abbreviates: recombinant human receptor, read-out: IC50 (nM) hSSTR5.
Setting [11] is: recombinant human receptor, read-out: IC50 (nM) hSSTR3.

T4 sequence (P30872 whole entry): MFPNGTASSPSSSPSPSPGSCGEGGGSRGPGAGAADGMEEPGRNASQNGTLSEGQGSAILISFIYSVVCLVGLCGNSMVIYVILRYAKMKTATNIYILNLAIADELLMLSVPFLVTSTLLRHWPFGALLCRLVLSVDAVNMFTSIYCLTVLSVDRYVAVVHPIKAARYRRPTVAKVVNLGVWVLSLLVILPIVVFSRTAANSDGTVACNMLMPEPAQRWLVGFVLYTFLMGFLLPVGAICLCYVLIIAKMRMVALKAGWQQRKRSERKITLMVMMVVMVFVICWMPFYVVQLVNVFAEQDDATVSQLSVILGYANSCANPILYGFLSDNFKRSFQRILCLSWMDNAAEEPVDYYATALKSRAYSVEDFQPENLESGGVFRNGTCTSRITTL
T3 sequence (P32745 whole entry): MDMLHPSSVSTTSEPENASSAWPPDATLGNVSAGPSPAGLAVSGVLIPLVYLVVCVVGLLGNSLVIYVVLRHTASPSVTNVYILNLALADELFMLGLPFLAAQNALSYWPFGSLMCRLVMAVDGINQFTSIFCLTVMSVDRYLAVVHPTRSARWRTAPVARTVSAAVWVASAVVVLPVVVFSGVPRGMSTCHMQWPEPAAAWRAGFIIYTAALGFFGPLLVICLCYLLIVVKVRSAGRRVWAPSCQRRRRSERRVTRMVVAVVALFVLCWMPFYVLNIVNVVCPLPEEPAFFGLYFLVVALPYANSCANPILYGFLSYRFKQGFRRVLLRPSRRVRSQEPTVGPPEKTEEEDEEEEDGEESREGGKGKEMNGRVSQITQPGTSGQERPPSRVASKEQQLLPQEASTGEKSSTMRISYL
T2 sequence (P35346 whole entry): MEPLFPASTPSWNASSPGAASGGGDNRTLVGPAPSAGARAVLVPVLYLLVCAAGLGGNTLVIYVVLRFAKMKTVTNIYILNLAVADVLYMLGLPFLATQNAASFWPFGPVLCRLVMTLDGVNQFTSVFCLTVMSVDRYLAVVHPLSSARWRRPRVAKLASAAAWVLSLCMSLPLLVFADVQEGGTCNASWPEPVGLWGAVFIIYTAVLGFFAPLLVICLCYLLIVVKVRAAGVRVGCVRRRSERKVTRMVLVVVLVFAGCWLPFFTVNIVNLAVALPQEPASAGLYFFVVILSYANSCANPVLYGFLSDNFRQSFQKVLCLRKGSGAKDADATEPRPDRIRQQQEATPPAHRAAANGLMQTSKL
T1 sequence (P30874 whole entry): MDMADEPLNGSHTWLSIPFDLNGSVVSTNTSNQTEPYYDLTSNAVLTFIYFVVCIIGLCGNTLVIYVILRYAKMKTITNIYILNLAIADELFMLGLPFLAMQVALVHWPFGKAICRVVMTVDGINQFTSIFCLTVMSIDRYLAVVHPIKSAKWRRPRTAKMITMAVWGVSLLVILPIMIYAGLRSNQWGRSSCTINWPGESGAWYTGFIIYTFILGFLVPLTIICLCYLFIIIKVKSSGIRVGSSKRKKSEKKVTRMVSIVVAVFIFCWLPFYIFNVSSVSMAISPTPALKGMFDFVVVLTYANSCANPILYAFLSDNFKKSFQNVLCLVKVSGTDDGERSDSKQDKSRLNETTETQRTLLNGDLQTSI

As for `COc1cc(CC2NC(=O)[C@H](Cc3ccccc3)NC(=O)[C@@H]3C[C@@H](OC(=O)NCCN)CN3C(=O)[C@H](Cc3ccccc3)NC(=O)[C@H](Cc3ccc(OCc4ccccc4)cc3)NC(=O)[C@H](CCCCN)NC2=O)c(OC)c2ccccc12` (single isomer, unassigned) [Example 8, cyclo[Tyr(Bn)-Phe-Pro(4-OCONH(CH2)2NH2)-Phe-(D,L)1,4-MNal-Lys]], the IC50 (usually the concentration needed to halve the response being measured) in data set [1] (setting [9]) is 26.6 nM; in data set [2] (setting [10]) it was 9.78 nM; in data set [3] (setting [11]), 2.92 nM; in data set [4], 19.1 nM.
As to `C[C@@H](O)[C@@H]1NC(=O)[C@H](CCCCN)NC(=O)[C@@H](Cc2c[nH]c3ccccc23)NC(=O)[C@H](Cc2ccccc2)NC(=O)[C@@H](NC(=O)[C@H](N)Cc2ccccc2)CSSC[C@@H](C(=O)N[C@H](CO)[C@@H](C)O)NC1=O` [OCTREOTIDE], the t½ result in data set [5] is “about 2 hours”.
Turning to `COc1cc(CC2NC(=O)[C@H](Cc3ccccc3)NC(=O)[C@@H]3C[C@@H](OC(=O)NCCN)CN3C(=O)[C@H](Cc3ccccc3)NC(=O)[C@H](Cc3ccc(OCc4ccccc4)cc3)NC(=O)[C@H](CCCCN)NC2=O)c(OC)c2ccccc12` (single isomer, unassigned) [Example 9, cyclo[Tyr(Bn)-Phe-Pro(4-OCONH(CH2)2NH2)-Phe-(D,L)1,4-MNal-Lys]], the IC50 in data set [1] (setting [9]) came out at 9.9 nM; in data set [2] (setting [10]), 1.9 nM; in data set [3] (setting [11]), 2.34 nM; in data set [4], 32.4 nM.
On to `COc1cc2cccc(OC)c2cc1CC1NC(=O)[C@H](Cc2ccccc2)NC(=O)[C@@H]2C[C@@H](OC(=O)NCCN)CN2C(=O)[C@H](Cc2ccccc2)NC(=O)[C@H](Cc2ccc(OCc3ccccc3)cc2)NC(=O)[C@H](CCCCN)NC1=O` (single isomer, unassigned) [Example 5, cyclo[Tyr(Bn)-Phe-Pro(4-OCONH(CH2)2NH2)-Phe-(D,L)3,8MNal-Lys]], for which the IC50 in data set [1] (setting [9]) worked out at 9.3 nM. Also, in data set [2] (setting [10]), the IC50 was 0.42 nM. In data set [3] (setting [11]), the IC50 worked out at 0.31 nM. The IC50 in data set [4] turned out to be 10.8 nM. In data set [6] (CD, Sprague Dawley), the AUC – broadly, concentration integrated over time – turned out to be 2880 ng·h/mL; the AUC(0-t) (in general, exposure summed from dosing to a finite time, without extrapolation to infinity) came out at 2730 ng·h/mL; the peak level (Cmax) was 224 ng/mL; the MRT (in general, the average time that molecules of a dose stay in the body) was found to be 19 h. Also, in data set [6] (CD, Sprague Dawley), the Tmax (usually the time at which the peak concentration occurs) is 4 h and the half-life is 1880 min. The pIC50 – broadly, the negative decadic logarithm of the IC50, by convention in mol/L – in data set [7] was 8.89.
As to `COc1cc2cccc(OC)c2cc1CC1NC(=O)[C@H](Cc2ccccc2)NC(=O)[C@@H]2C[C@@H](OC(=O)NCCN)CN2C(=O)[C@H](Cc2ccccc2)NC(=O)[C@H](COCc2ccccc2)NC(=O)[C@H](CCCCN)NC1=O` (single isomer, unassigned) [Example 15, cyclo[Ser(Bn)-Phe-Pro(4-OCONH(CH2)2NH2)-Phe-(D,L)3,8MNal-Lys]], the IC50 in data set [1] (setting [9]) is 7 nM; in data set [2] (setting [10]), 1.62 nM; in data set [3] (setting [11]), 1.8 nM; in data set [4], 1 nM.
Consider `CNCCNC(=O)O[C@@H]1C[C@H]2C(=O)N[C@@H](Cc3ccccc3)C(=O)NC(Cc3cc4c(OC)cccc4cc3OC)C(=O)N[C@@H](CCCCN)C(=O)N[C@@H](Cc3ccc(OCc4ccccc4)cc3)C(=O)N[C@@H](Cc3ccccc3)C(=O)N2C1` (single isomer, unassigned) [Example 7, cyclo[Tyr(Bn)-Phe-Pro (4-OCONH(CH2)2NHCH3)-Phe-(D,L)3,8MNal-Lys]], for which the IC50 was found to be 9.2 nM in data set [1] (setting [9]), 0.97 nM in data set [2] (setting [10]), 1.33 nM in data set [3] (setting [11]) and 5.8 nM in data set [4].
Consider “Fmoc-(D/L) 3-(3,8-dimethoxy-Naphthalene-2-yl)-Alanine [Example 1]”, for which the “reduction of the release of GH” value in data set [8] (5 μg/kg, six hours after the administration) is listed as 55%. The “reduction of GH, duration” value in data set [8] (125 μg/kg, 24 hours after the administration) is recorded as “still measurable”.
On to `NCCCC[C@@H]1NC(=O)[C@@H](Cc2c[nH]c3ccccc23)NC(=O)[C@H](c2ccccc2)NC(=O)[C@@H]2C[C@@H](OC(=O)NCCN)CN2C(=O)[C@H](Cc2ccccc2)NC(=O)[C@H](Cc2ccc(OCc3ccccc3)cc2)NC1=O` [PASIREOTIDE, reference compound] (cyclo([Hyp]([CO-Ethylenediamine])[Phg][dW]KY(Bn)F)), for which, in data set [6] (Sprague Dawley (CD)), the AUC worked out at 2800 ng·h/mL; the AUC(0-t) was 2780 ng·h/mL; the Cmax – broadly, the peak of the concentration-time curve – was found to be 668 ng/mL; the MRT is 4.87 h. Moreover, in data set [6] (Sprague Dawley (CD)), the Tmax stood at 2 h and the half-life is 1460 min.
For `COc1ccc(OC)c(CCC2NC(=O)[C@H](Cc3ccccc3)NC(=O)[C@@H]3C[C@@H](OC(=O)NCCN)CN3C(=O)[C@H](Cc3ccccc3)NC(=O)[C@H](Cc3ccc(OCc4ccccc4)cc3)NC(=O)[C@H](CCCCN)NC2=O)c1` (single isomer, unassigned) [Example 6, cyclo[Tyr(Bn)-Phe-Pro(4-OCONH(CH2)2NH2)-Phe-(D,L)2,5 MhPhe-Lys]], the IC50 in data set [1] (setting [9]) is 25.8 nM; in data set [2] (setting [10]) it was 0.64 nM; in data set [3] (setting [11]), 0.52 nM; in data set [4], 10 nM.
Consider `COc1cc2cccc(OC)c2cc1CC1NC(=O)[C@H](Cc2ccc(O)cc2)NC(=O)[C@@H]2C[C@@H](OC(=O)NCCN)CN2C(=O)[C@H](Cc2ccccc2)NC(=O)[C@H](Cc2ccc(OCc3ccccc3)cc2)NC(=O)[C@H](CCCCN)NC1=O` (stereo partly shown) [Example 14, cyclo[Tyr(Bn)-Phe-Pro(4-OCONH(CH2)2NH2)-Tyr-(D,L)3,8MNal-Lys]], for which the IC50 in data set [1] (IC50 (nM) hSSTR2, recombinant human receptor) stood at 1.8 nM; in data set [2] (IC50 (nM) hSSTR5, recombinant human receptor), 0.36 nM; in data set [3] (IC50 (nM) hSSTR3, recombinant human receptor) it was 0.35 nM.
